The values that follow come from the RepoRT retention time repository (doi:10.1021/acs.analchem.1c00972).

A short description of this data set: RP, Waters ACQUITY UPLC BEH C18, 100 × 1 mm, 1.7 µm, 50 °C, 0.3 mL/min, estimated dead time 0.17 min; A: water + 0.1% formic acid + 20 mM ammonium formate; B: methanol + 0.1% formic acid + 20 mM ammonium formate; gradient (min/%B) 0/0 15/100 21/100 22/0 30/0. The settings on record: stereoisomer not certain.

SMILES strings stand for the structures.

On to `Nc1ccc(Br)cc1` [4-Bromoaniline], for which the LC retention time was 8.49 min.
The result for `Cc1cccc(C)c1NC(=O)CCl` [Metazachlor-N-dealkylation] reads 10.2 min; that for `Nc1cc(Cl)c(S(N)(=O)=O)cc1S(N)(=O)=O` [4-Amino-6-chloro-1,3-benzenedisulfonamide], 3.6 min; that for `CC(=O)Oc1ccccc1C(=O)O` [Acetylsalicyls<e4>ure], 16.5 min.
The result for `Cc1cccc(O)c1` [3-Methylphenol] reads 14.3 min; that for `CC(C)c1ccc(NC(N)=O)cc1` [1-(4-Isopropylphenyl)-Harnstoff], 12.3 min; that for `O=C(O)c1cc(Br)c(O)c(Br)c1` [3,5-Dibromo-4-hydroxybenzoic acid], 11.4 min.
The result for `Cc1nccc2ccccc12` [1-Methylisochinolin] reads 6.14 min; that for `O=c1cc(O)c2ccccc2o1` [4-Hydroxycoumarin], 10.7 min.
As to `COP(N)(=S)Oc1ccccc1C(=O)OC(C)C` (stereo unspecified) [Isocarbophos], the LC retention time is 13.2 min.
Turning to `NC1CCCCC1` [Cyclohexylamine], the LC retention time is 4.9 min.
Take `CC(C)(C)c1ccc(CCOc2ncnc3ccccc23)cc1` [Fenazaquin]: the LC retention time was 17.8 min.
With `Cc1cnc(NC(=O)C2=C(O)c3ccccc3S(=O)(=O)N2C)s1` [meloxicam], the LC retention time is 13.3 min.
With `O=C(O)CC1(C(=O)O)CCCCC1` [Gabapentin Related Compound E] the figure was 9.9 min; with `CCCCCC(O)CC(=O)CCc1ccc(O)c(OC)c1` (stereo unspecified) [[6]-Gingerol], 14 min.
On to `CC(=O)c1ccc(N)cc1` [4-aminoacetophenone], for which the LC retention time was 2.5 min.
With `NS(=O)(=O)c1cc2c(cc1Cl)NC=NS2(=O)=O` [Chlorthiazide] the figure was 4.7 min; with `CC(c1ccc(O)cc1)c1ccc(O)cc1` [Bisphenol E], 11.5 min.
For the molecule `COc1cccc(CO)c1O` [2-Hydroxy-3-methoxybenzyl alcohol], the LC retention time is 9 min.
The result for `O=C(O)c1cccnc1Oc1cccc(C(F)(F)F)c1` [Diflufenican-metabolite] reads 13.2 min; that for `O=C(OC1CC2CCC(C1)[N+]21CCCC1)C(O)(c1ccccc1)c1ccccc1` (stereo unspecified) [Trospium], 14.2 min; that for `Cc1ccccc1C(=O)Nc1cccc(OC(C)C)c1` [Mepronil], 14.4 min.
The result for `CCOC(=O)OC1(C(=O)COC(=O)CC)CCC2C3CCC4=CC(=O)C=CC4(C)C3C(O)CC21C` (stereo unspecified) [Prednicarbate] reads 15.3 min; that for `CNCCC(Oc1ccc(C(F)(F)F)cc1)c1ccccc1` (stereo unspecified) [Fluoxetine], 13.2 min; that for `Cc1ccc2n[nH]nc2c1` [5-Methyl-1-H-benzotriazol], 9.89 min.
As to `Nc1ccc(Cl)c(Cl)c1` [3,4-Dichloroaniline], the LC retention time was 17.6 min.
With `O=C(O)CCc1c[nH]c2ccccc12` [3-Indolepropionic acid] the figure was 11.7 min; with `COP(=O)(OC)OC1=C(Cl)C2C=CCC12` (stereo unspecified) [Heptenophos], 13.3 min; with `CCNC(=O)c1cccc(C)c1` [N-Ethyl-3-methylbenzamide], 10.7 min.
The result for `CCOC(=O)C1=CC(OC(CC)CC)C(NC(C)=O)C(N)C1` (stereo unspecified) [Oseltamivir] reads 11.5 min; that for `COCCOCCO` [Diethyleneglycolmonomethylether], 5.03 min; that for `CCCCCC1=CC(=O)C=C(OC)C1=O` [Primin], 14.3 min.
With `CC(C)(N)CN` [1,2-Diamino-2-methylpropane] the figure was 18.5 min; with `CC(=O)OC1C(=O)C2(C)C(O)CC3OCC3(OC(C)=O)C2C(OC(=O)c2ccccc2)C2(O)CC(O)C(C)=C1C2(C)C` (stereo unspecified) [Baccatin III], 12.5 min; with `CCc1cccc(C)c1NC(=O)CCl` [Metolachlor-N-dealkylation], 13.7 min.
For the molecule `N#CCCCCC#N` [Adiponitrile], the LC retention time was 5.21 min.
The result for `CNC(=O)NCc1cnc(Cl)s1` reads 7.69 min; that for `CC12CC1(C)C(=O)N(c1cc(Cl)cc(Cl)c1)C2=O` (stereo unspecified) [Procymidone], 14.6 min.
With `CNC(=O)Oc1cc(C)c(S(C)=O)c(C)c1` (stereo unspecified) [Methiocarb-sulfoxide] the figure was 9.18 min; with `Nc1ccc(S(=O)(=O)Nc2cnc3ccccc3n2)cc1` [Sulfachinoxalin], 14 min; with `COCCOC(=O)c1ccccc1C(=O)OCCOC` [Bis(2-methoxyethyl)phthalate], 12.3 min.
With `O=C1CCCCCCCCCCCN1` [Dodecane-12-lactam] the figure was 14 min; with `CC(=O)OCC(=O)C1(O)CCC2C3CCC4=CC(=O)CCC4(C)C3C(O)CC21C` (stereo unspecified) [Hydrocortisonacetate], 13.4 min.
`O=[P+](c1ccccc1)c1ccccc1` [Diphenylphosphine oxide]: the LC retention time was 11.8 min.
With `O=c1ccn(C2OC(CO)C(O)C2(F)F)c(=O)[nH]1` (stereo unspecified) [2',2'-Difluoro-2'-deoxyuridine] the figure was 4.8 min; with `CN1CCN(C)C1=O` [1,3-Dimethyl-2-imidazolidinone], 6.1 min.
The result for `Cn1cc(C(=O)Nc2ccc(F)cc2-c2ccc(Cl)c(Cl)c2)c(C(F)F)n1` [Bixafen] reads 15.4 min; that for `O=C(O)CNC(=O)c1ccccc1` [Hippuric_acid], 7.2 min.
The result for `CCOP(=S)(OCC)Oc1nc(Cl)c(Cl)cc1Cl` [Chlorpyriphos-ethyl] reads 17.1 min; that for `COC(=O)c1ccccc1C(=O)OC` [Dimethylphthalat DMP], 11.2 min.
With `NS(=O)(=O)Cc1noc2ccccc12` [Zonisamide], the LC retention time was 8.02 min.
The result for `Cc1cc(C(C)(C)C)c(O)c(C(C)(C)C)c1` [Dibutylhydroxytoluene] reads 17 min; that for `CCSCCSP(=O)(OC)OC` [Demeton-S-methyl], 11.8 min.
The result for `CCCC(=O)Nc1ccc(OCC(O)CNC(C)C)c(C(C)=O)c1` (stereo unspecified) [Acebutolol] reads 15.9 min; that for `CC(C)=NOCCOC(=O)C(C)Oc1ccc(Oc2cnc3cc(Cl)ccc3n2)cc1` (stereo unspecified) [Propaquizafop], 16.8 min.
With `C#CCOc1ccc(CCNC(=O)C(OCC#C)c2ccc(Cl)cc2)cc1OC` (stereo unspecified) [Mandipropamid] the figure was 14.3 min; with `NCCc1ccc(OC2OC(C(=O)O)C(O)C(O)C2O)c(O)c1` (stereo unspecified) [dopamine_glucuronide], 9.2 min; with `Cc1cc(Cl)ccc1N=CN(C)C` [Chlordimeform], 8.37 min.
For the molecule `CC(C)CCCC(C)C1CCC2C3CC=C4CC(O)CCC4(C)C3CCC12C` (stereo unspecified) [Cholesterol], the LC retention time was 21.4 min.
With `Cc1ccccc1OP(=O)(Oc1ccccc1C)Oc1ccccc1C` [Tris(2-methylphenyl) phosphate (tri-o-cresyl phosphate)] the figure was 17 min; with `O=S(=O)(O)C(F)(F)F` [Trifluoromethanesulfonic acid], 2 min.
Take `Nc1nc(N)nc(-c2ccccc2)n1` [Benzoguanamine]: the LC retention time was 7.87 min.
With `COP(=S)(NC(C)C)Oc1ccccc1C(=O)OC(C)C` (stereo unspecified) [Isofenphos-methyl] the figure was 15.5 min; with `CCNc1nc(Cl)nc(NC(C)(C)C#N)n1` [Cyanazin], 11.3 min.
For the molecule `CCc1cccc(CC)c1N(COC)C(=O)CS(=O)(=O)O` [Alachlor tert-sulfonic acid (ESA)], the LC retention time is 11.8 min.
The result for `CC(C)(C)C(=O)C(Oc1ccc(Cl)cc1)n1cncn1` (stereo unspecified) [Triadimefon] reads 14.5 min.
With `CNC(=O)Oc1ccccc1C1OCCO1` [Dioxacarb] the figure was 15.1 min.
With `CN(C)CCC=C1c2ccccc2COc2ccc(CC(=O)O)cc21` [Olopatadine] the figure was 11.5 min; with `CC(=O)C1(C)CC2=C(CCCC2(C)C)CC1C` (stereo unspecified) [ISO E Super], 17.7 min; with `Nc1ccc(F)cc1` [Picolinafen-Fluoroaniline], 2.59 min.
Take `c1ccc(Oc2ccccc2)cc1` [Diphenylether]: the LC retention time was 13.5 min.
The result for `O=C1NC(=O)C(c2ccccc2)(c2ccccc2)N1` [Phenytoin] reads 12 min.
With `CCCSP(=O)(OCC)SCCC` [Ethoprophos] the figure was 15 min; with `CC1(C)C(=O)Oc2ccc(OS(C)(=O)=O)cc21` [Ethofumesate-2-keto], 12 min.
`COc1ccc(-c2coc3cc(O)ccc3c2=O)cc1` [Formononetin]: the LC retention time is 13.2 min.
In the case of `O=C(O)c1cc2ccccc2[nH]1` [Indole-2-carboxylic acid/Indole-3-carboxylic acid], the LC retention time is 7.8 min.
The result for `CCNC(=O)C(C)Oc1cccc2ccccc12` (stereo unspecified) [Desethyl-napropamide] reads 14 min; that for `CCC(C)n1c(=O)[nH]c(C)c(Br)c1=O` (stereo unspecified) [Bromacil], 11.5 min; that for `CC1(C)C2CC=C(CO)C1C2` (single isomer, unassigned; (-)) [(-)-Myrtenol], 11.5 min.
The result for `Cc1cccc(C)c1N(Cn1cccn1)C(=O)C(=O)O` [Metazachlor BH 479-4 (Metazachlor oxanilic acid (OA))] reads 9.29 min; that for `CC(Cc1ccc(C(C)(C)C)cc1)CN1CCCCC1` (stereo unspecified) [Fenpropidin], 13.8 min.
